From PMC7356104, “Oral Administration of Artemisone for the Treatment of Schistosomiasis: Formulation Challenges and In Vivo Efficacy” (Pharmaceutics, 2020)
In brackets after ≈: the same amount, converted by molar mass. Like-named read-outs stand apart in the source and are kept apart here.

How the values were obtained:
[1] = system: S. mansoni; conditions: cited from earlier work
[2] = Solubility of artemisone in organic solvents, excipients and SMEDDS (HPLC); format: physicochemical; conditions: thermodynamic from solid
Procedure: The solubility of artemisone in organic solvents and lipid excipients was determined according to the following procedure: 200 mg artemisone/1.0 mL excipient were placed on an orbital mixing heating plate (Torrey Pines Scientific, Carlsbad, CA, USA) at 25 °C for 24 h under light exclusion. Samples were centrifuged and the supernatant filtered and diluted with ethanol as necessary before HPLC analysis. Samples were prepared in triplicates.
(§1) Artemisone was quantified with high-performance liquid chromatography (HPLC) (Agilent/HP 1100 HPLC series, high-pressure pump, degasser, UV-VIS detector and autosampler, now Agilent Technologies, Inc., Santa Clara, CA, USA), using a method we developed and validated according to the ICH guidelines, over a range of 10–500 µg artemisone/mL (Table 1).

[3] = Storage stability of artemisone in SMEDDS and PBS at 30 °C (HPLC); format: physicochemical; conditions: 80 µg/mL in PBS pH 6.5, 30 °C, light exclusion
Procedure: as §1
Artemisone (50 mg/g) was dissolved in SMEDDS-100. For SMEDDS-50-ART and SMEDDS-20-ART, PBS was added to the drug-loaded formulation to give the microemulsions, containing 25 mg/g and 10 mg/g artemisone, respectively. A solution of 80 µg/mL artemisone in PBS pH 6.5 Ph.Eur. was prepared and used as control, the pH found for SMEDDS-50 and SMEDDS-20 also being around 6.5. Triplicates of all three preparations were stored in glass vials with Teflon sealed lids at 30 °C under light exclusion. Samples were taken after 14, 28, 42, 56, and 92 days and analyzed via HPLC to monitor drug stability.

[4] = system: P. falciparum NF54 parasites; assay: In vitro efficacy on P. falciparum in culture; format: cell-based, Plasmodium falciparum; conditions: 48 h
Procedure: P. falciparum NF54 parasites were cultivated at 4% hematocrit in RPMI 1640 medium, 0.5% Albumax II (Invitrogen, Carlsbad, CA, USA), 0.25% sodium bicarbonate, and 0.1 mg/mL gentamicin. 200 µL of parasite suspension at 1% parasitemia were incubated in a Nunc microplate, in 96 flat-bottom wells, at 37 °C, in an atmosphere of 5% oxygen, 5% carbon dioxide and 90% nitrogen. Drug dilutions were added in triplicates in 25 µL. After 48 h P. falciparum parasitaemias were estimated by microscopic determination of the percent of parasitized erythrocytes in a total of 5000 erythrocytes, using Giemsa stained blood smears that were prepared from triplicate individual wells.

[5] = H2O; cited from earlier work
[6] = parameters: method as in earlier work; conditions: cited from earlier work
[7] = parameters: method as in PMID 21596127; conditions: oral Pheroid technology formulation, mice; cited from earlier work
[8] = similar procedure (single oral dose)

Structure (SMILES): CO[C@H]1O[C@@H]2O[C@@]3(C)CC[C@H]4[C@H](C)CC[C@@H]([C@H]1C)[C@@]24OO3 [artemether]
- reduction of worm load [1, 8]: more than 90%

Structure (SMILES): C[C@H]1[C@H](N2CCSCC2)O[C@@H]2O[C@@]3(C)CC[C@H]4[C@H](C)CC[C@@H]1[C@@]24OO3 [artemiside]
- reduction of worm load [1, 8]: more than 90%

Structure (SMILES): C[C@H]1[C@H](N2CCS(=O)(=O)CC2)O[C@@H]2O[C@@]3(C)CC[C@H]4[C@H](C)CC[C@@H]1[C@@]24OO3 [artemisone, 4-[(1R,4S,5R,8S,9R,10R,12R,13R)-1,5,9-trimethyl-11,14,15,16-tetraoxatetracyclo-hexadecan-10-yl]-1,4-thiazinane1,1-dioxide]
- solubility at 24 h ([2]; oil or lipid, in Polysorb ID 46, 25 °C): 55 mg/mL (≈ 137 mM)
- solubility at 24 h ([2]; oil or lipid, in medium chain mono- and diglycerides (Capmul MCM), 25 °C): 62.5 mg/mL (≈ 156 mM)
- solubility at 24 h ([2]; oil or lipid, in medium chain triglycerides (MCT), 25 °C): 22.5 mg/mL (≈ 56 mM)
- solubility at 24 h ([2]; organic solvent or mixture, in DMF, 25 °C): > 100 mg/mL
- solubility at 24 h ([2]; organic solvent or mixture, in DMSO, 25 °C): > 100 mg/mL
- solubility at 24 h ([2]; organic solvent or mixture, in acetone, 25 °C): > 100 mg/mL
- solubility at 24 h ([2]; organic solvent or mixture, in dichloromethane, 25 °C): > 100 mg/mL
- solubility at 24 h ([2]; organic solvent or mixture, in ethanol, 25 °C): 30 mg/mL (≈ 74.7 mM)
- solubility at 24 h ([2]; organic solvent or mixture, in hexane, 25 °C): 0.8 mg/mL (≈ 1.99 mM)
- solubility at 24 h ([2]; organic solvent or mixture, in methanol, 25 °C): 50 mg/mL (≈ 125 mM)
- solubility at 24 h ([2]; organic solvent or mixture, in propylene glycol, 25 °C): 8.5 mg/mL (≈ 21.2 mM)
- artemisone recovered after three months [3]: 51.5 ± 0.4%
- concentration at which parasitaemia was completely blocked [4]: below 11 ng/mL
- ED50 ([4]; parasitaemia by Giemsa smears): 1 to 2 ng/mL
- aqueous solubility [5]: 0.089 mg/mL (≈ 0.222 mM)
- degradation in aqueous medium ([6]; pH 3): complete degradation was observed within one week
- intact compound remained after one month ([6]; pH 5): 20%
- intact compound remained after one month ([6]; pH 7.4): 75%
- reduction of worm load [1, 8]: more than 90%
- higher absorption of artemisone compared to an aqueous vehicle containing 10% DMSO [7]: 5.57 fold

Structure (SMILES): C[C@H]1[C@H](OC(=O)CCC(=O)O)O[C@@H]2O[C@@]3(C)CC[C@H]4[C@H](C)CC[C@@H]1[C@@]24OO3 [artesunate]
- reduction of worm load ([1]; single oral dose 400 mg/kg in 3% ethanol and 7% Tween 80, 21 days post-infection): 66%
